In BindingDB's records for doi:10.1016/j.bioorg.2016.11.003 (Linyi People's Hospital, 2017) one finds Kd data, which are given here for six molecules.

For the assay, the target named is T1, Forkhead box protein M1 [235-327] (Human, UniProt Q08050).
T1 construct: 235-327
T1 sequence (Q08050 whole entry): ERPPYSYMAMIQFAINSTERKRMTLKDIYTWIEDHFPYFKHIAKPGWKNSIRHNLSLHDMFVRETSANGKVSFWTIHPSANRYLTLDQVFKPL
Put plainly: Fluorescence-based Affinity Assay. As to the method:
The fluorescence emission spectra of tryptophan residues were used to monitor the changes in local chemical environment of protein upon ligand binding [Zhu et al., Bioorg. Chem., 68:259-265; Tyler et al., Biochemistry, 49:951-957]. The protein concentration was kept at a constant. Changes in fluorescence were measured upon titration of tested compound to protein solution. Fluorescence was measured by a PE fluorescence spectrophotometer.
For orientation: Kd means the free concentration of one partner at which half of the binding sites on the other are occupied at equilibrium, for simple one-to-one binding. In turn, `CC1=C(C(=O)OC(C)C)C(c2ccc([N+](=O)[O-])cc2)NC(=S)N1` (stereo unspecified) [CID 2748293] showed a Kd of 17 µM.
For the molecule `COc1ccccc1C(=O)C(CCC(=O)O)c1ccccc1OC` (stereo unspecified) [CID 2748371], binding was put at a Kd of 26 µM.
As for `O=c1[nH]nc(-c2ccccc2)c(=S)n1-c1ccc(F)c(Cl)c1` [CID 2751638], the figure is 120 µM; as for `N=c1sc(C(=O)c2cccs2)nn1-c1ccccc1` [CID 2753793], 3.8 µM.
As for `CCC[C@H]1C(=O)N[C@]2(C(=O)O[C@@H]2[C@H]2C=CCCC2)[C@@]1(C)O` [CID 50943806], the figure is 230 µM; as for `Cc1cccc2c(/C=C/C(=O)O)cc(C(C)C)c(O)c12` [CID 53708511], 56 µM.
